Experimental data reported in patent US6603058B1, “Non-human animal model for obesity and uses thereof” (Oklahoma Medical Research Foundation, priority 1998, dated 2003).

Key:
Type in all cases: in vivo, mouse
[1] = Coat pigmentation of mice treated with MSH for two weeks
From the text: An effect of MSH could also be seen on coat pigmentation. […] Yellow coat pigmentation gradually reappeared after MSH treatment was terminated (data not shown).

[2] = Weight change and food intake in wildtype and POMC null mutant mice under standard diet, standard diet plus MSH analog, or high fat diet; details: for food intake, standard diet v. standard diet & MSH analog treatment / weight change, standard diet v. standard diet & MSH analog treatment: MSH analog i.p. 1 or 2 μg once daily
Method: P values were determined by ANOVA. If the major component of weight regulation through the melanocortinergic pathway was the regulation of feeding behavior, the observed changes in body weight in POMC null mutant mice should be paralleled by a similar pattern in food uptake. This, however, was not observed (FIGS. 5B and 5D and Table 1).

[3] = Daily intraperitoneal MSH analog treatment of POMC homozygous mutant and wildtype female mice: body weight change and food intake; details: for weight loss, share of excess weight: mutant female mice, 1 microgram (~1 nmol) i.p. daily; for weight loss in wildtype mice: wildtype non-obese littermates, peripheral (i.p.) daily treatment
Method: To initially test for the effect of peripheral melanocortins on weight change, we selected the stable agonist [Ac-Cys^4, D-Phe^7, Cys^10] αMSH (4-13)(described in Cody et al., 1985, J. Med. Chem. 28, 583-588; incorporated herein by reference in its entirety). Briefly, [Ac-Cys^4,D-Phe^7, Cys^10] α-MSH (4-13) amide was obtained from Peninsula Laboratories, CA. Lyophilized powder was dissolved in water at 1 mg/ml, which was diluted in PBS to 10 μg/mL. During the experiments, mice were maintained on a normal 12h/12h light/dark cycle with food and water ad libitum. Mice were fed standard laboratory rodent diet (#5001).
In order to see whether the α-MSH analog has an effect on food intake, we compared weight change and food intake in these mice for one week (see bars in FIGS. 4A and 4B) under MSH analog treatment and after MSH analog treatment was stopped (FIGS. 4C and 4D). During one week under MSH analog treatment mutant mice lost 0.5 g, while wildtype littermates gained 0.3 g; the food intake during this time was equivalent in both groups (20.7 g in wildtypes, and 22.7 g in mutants).

[4] = both on standard diet & MSH analog treatment

[Ac-Cys^4,D-Phe^7, Cys^10] α-MSH (4-13) amide [MSH analog]
effect on coat pigmentation [1]: lost their yellowish tinge | food intake, wildtype v. mutant [2, 4]: ↑ | weight change, wildtype v. mutant [2, 4]: ↓ | food intake, standard diet v. standard diet & MSH analog treatment ([2]; mutant mice): decreases food intake and ↓ | weight change, standard diet v. standard diet & MSH analog treatment ([2]; mutant mice): lose excess weight and ↓ | food intake, standard diet v. standard diet & MSH analog treatment ([2]; wildtype mice): decreases food intake and ↓ | weight change, standard diet v. standard diet & MSH analog treatment ([2]; wildtype mice): ←→ | weight loss, share of excess weight ([3]; by 2 weeks): 46 % of excess weight | weight loss, share of excess weight ([3]; within one week): 38 % of excess weight | body weight gained in one week after MSH analog treatment had been stopped for two weeks ([3]; mutant mice): 1.7 g | food intake during one week under MSH analog treatment ([3]; mutant mice): 22.7 g | food intake in one week after MSH analog treatment had been stopped for two weeks ([3]; mutant mice): 35.7 g | time after stop of MSH injections until mutant mice started to gain weight ([3]; mutant mice): about 10 days | loss of excess weight after two weeks (summary statement) ([3]; mutant mice treated peripherally): over 40 % of excess weight | body weight lost during one week under MSH analog treatment ([3]; mutant mice, second week of treatment): 0.5 g | difference in food intake, mutants over wildtypes, after treatment stopped for two weeks ([3]; one week, p<0.005): 11.5 g | body weight gained in one week after MSH analog treatment had been stopped for two weeks ([3]; wildtype littermates): 0.3 g | body weight gained during one week under MSH analog treatment ([3]; wildtype littermates, second week of treatment): 0.3 g | food intake during one week under MSH analog treatment ([3]; wildtype mice): 20.7 g | food intake in one week after MSH analog treatment had been stopped for two weeks ([3]; wildtype mice): 24.2 g | weight loss in wildtype mice ([3]; listed as MSH-agonist): no significant weight loss | weight loss in wildtype mice ([3]; listed as stable α-MSH agonist): did not lose significant weight
